Experimental data from paper PMC5834492, “Antimycobacterial drug discovery using Mycobacteria-infected amoebae identifies anti-infectives and new molecular targets” (Scientific Reports, 2018).

How the values were obtained:
Mtb H37Rv = test system: Mtb H37Rv; set-up: method as in Sorrentino et al, 2015; conditions: ref Sorrentino et al, 2015; cited from earlier work
[1] = test system: M. marinum in BV2 microglial cells; assay type: cell-based, Mycobacterium marinum
[2] = test system: M. marinum in A. castellanii; assay type: cell-based, Mycobacterium marinum
Mtb H37Rv in THP-1 = test system: Mtb H37Rv in THP-1; set-up: method as in Sorrentino et al, 2015; conditions: ref Sorrentino et al, 2015, cited from earlier work; for Intracelullar MIC90 in THP-1: THP1 / Mtb H37Rv infection assay; for Extracellular MIC90/ Inracellular MIC90: ratio
M. marinum luxCDABE = assay type: cell-based, Mycobacterium marinum

Structure (SMILES)	Extracellular MIC90 (Mtb H37Rv) [µM]	Intracellular infection assays: BV2 / M. marinum [1]	Growth inhibition / Cytotoxicity assays: D. discoideum GFP-ABD (D. discoideum GFP-ABD)	Intracellular infection assays: A. castellanii / M. marinum [2]	Intracelullar MIC90 in THP-1 (Mtb H37Rv in THP-1) [µM]	Extracellular MIC90/ Inracellular MIC90 (Mtb H37Rv in THP-1)	Growth inhibition / Cytotoxicity assays: BV2 cells (BV2 cells)	Antibiotic assays: M. marinum luxCDABE (M. marinum luxCDABE)
Cc1cccc(-c2nc(Nc3ccncn3)c3c(C)csc3n2)n1 [GSK163574A]	0.3	1.25	0.81	1.13	50	0.01	False	0.00
COc1cc(Nc2ccccc2)ccc1NS(=O)(=O)c1c(C)noc1C [GSK270670A]	6.1	1.42	0.94	1.11	50	0.12	False	1.00
CN1CCN(c2cc(-c3ccc(F)cc3)nc(-c3ccncc3)n2)CC1 [GSK276001A]	7.4	1.11	0.65	1.04	50	0.15	False	0.63
COc1ccc2nc(C)cc(OCC(=O)Nc3ccccc3OC)c2c1 [GSK358607A]	0.4	0.98	0.39	0.55	1.85	0.22	False	0.00
COc1ccc2nc(C)cc(OCC(=O)NCc3ccccc3)c2c1 [GSK463114A]	1.1	1.37	0.95	1.10	5.55	0.2	False	0.00
Cc1nn(Cc2ccccc2)c(Cl)c1C(=O)NC1CCCCCC1 [GSK636544A]	5.2	1.35	0.93	1.07	1.85	2.81	False	0.00
Fc1ccc2nc(Nc3nc(-c4ccccn4)cs3)sc2c1 [GSK735816A]	2.3	1.37	0.37	1.17	1.85	1.24	False	0.00
c1ccc(-c2csc(Nc3nc4cc5c(cc4s3)OCO5)n2)nc1 [GSK735826A]	2.7	1.47	0.86	0.98	1.85	1.46	False	0.00
FC(F)(F)c1cc(SCc2ccccc2)nc(-c2ccccn2)n1 [GSK847913A]	3.3	1.39	0.94	0.90	1.85	1.78	False	0.00
CCc1nc2ccccc2n1CC(O)COc1cc(C)ccc1Cl (stereo not drawn) [GSK889423A]	8.8	1.41	0.94	1.18	5.55	1.58	False	0.00
O=C(CCSc1ccc(Cl)cc1)Nc1nc(-c2ccccn2)cs1 [GSK920703A]	8.4	1.24	0.48	1.34	5.55	1.51	False	0.13
O=C(CCC1CCCCC1)Nc1cccc(-c2nnc(-c3ccco3)o2)c1 [GSK937213A]	6.1	1.14	1.19	1.06	0.61	10	False	0.00
Cc1ccc(C2CC(C(F)(F)F)n3ncc(C(=O)NCc4ccc5c(c4)OCO5)c3N2)cc1 (stereo not drawn) [GSK937733A]	5.4	1.64	0.94	1.38	0.61	8.85	False	1.00
Cc1ccc(CNC(=O)c2cnn3c2NC(c2ccc(C)cc2)CC3C(F)F)cc1 (stereo not drawn) [GSK1180781A]	1.2	1.23	1.05	1.14	0.21	5.71	False	1.00
c1ccc(CCNc2cc(-c3ccccc3)nc3nncn23)cc1 [GSK1402290A]	5.5	1.11	0.84	1.08	5.55	0.99	False	0.14
Fc1ccccc1-c1noc(N2CCN(Cc3ccc4c(c3)OCO4)CC2)n1 [GSK1434490A]	5.2	1.16	0.93	1.24	5.55	0.94	False	0.68
CCc1ccc(C2CC(C(F)(F)F)n3ncc(C(=O)NCc4cccs4)c3N2)cc1 (stereo not drawn) [GSK1589671A]	4.4	1.74	0.99	1.63	0.21	20.95	False	0.16
CCc1ccc(C2CC(C(F)(F)F)n3ncc(C(=O)NCc4ccc(OC)cc4)c3N2)cc1 (stereo not drawn) [GSK1589673A]	4.9	1.29	1.16	1.34	0.61	8.03	False	1.00
COc1ccc2cc(C(=O)Nc3ccc(C4CCN(C)CC4)cc3)sc2c1 [GSK1635139A]	9.5	1.15	0.78	1.28	50	0.19	False	1.00
O=C(Nc1nc(-c2ccccn2)cs1)c1cncn1-c1ccccc1 [GSK1691553A]	7.9	1.01	0.80	1.03	50	0.16	False	0.07
O=C(N[C@@H](Cc1ccccc1)C(=O)Nc1ccccc1N1CCOCC1)c1cccs1 [GSK1729177A]	6.6	1.02	1.04	0.64	50	0.13	True	0.00
